The source of these data is ChEMBL document CHEMBL3525934 (Drug Metab Dispos, 2013).

Molecules are shown by their SMILES.

Holding throughout (type): ADME
Conditions in all cases: 0.5 h

Data set [1] has as its target T1, Cytochrome P450 1B1 (Homo sapiens, UniProt Q16678).
T1 sequence (Q16678 whole entry): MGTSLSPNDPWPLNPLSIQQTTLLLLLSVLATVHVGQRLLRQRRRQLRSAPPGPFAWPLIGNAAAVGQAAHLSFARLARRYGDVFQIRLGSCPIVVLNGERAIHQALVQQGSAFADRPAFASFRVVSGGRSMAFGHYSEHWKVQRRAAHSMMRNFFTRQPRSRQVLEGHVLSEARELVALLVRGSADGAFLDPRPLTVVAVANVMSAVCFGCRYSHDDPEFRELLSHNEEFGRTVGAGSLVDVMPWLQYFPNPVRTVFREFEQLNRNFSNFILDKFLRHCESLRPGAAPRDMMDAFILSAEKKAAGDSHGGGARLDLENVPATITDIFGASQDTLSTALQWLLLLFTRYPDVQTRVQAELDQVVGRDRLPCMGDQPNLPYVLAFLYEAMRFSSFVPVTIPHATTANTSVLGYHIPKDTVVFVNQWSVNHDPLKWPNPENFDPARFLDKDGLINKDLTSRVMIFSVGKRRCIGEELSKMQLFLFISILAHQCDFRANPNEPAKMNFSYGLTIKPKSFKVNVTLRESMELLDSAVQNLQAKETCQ
As to the kind of experiment: Drug metabolism in supersomes expressing human recombinant CYP1B1 assessed as enzyme-mediated N-desmethylclozapine metabolite formation at 100 uM after 30 mins measured per nmol of P450 by HPLC analysis.

Data set [2] concerns the target T2, Cytochrome P450 2C8 (Homo sapiens, UniProt P10632).
T2 sequence (P10632 whole entry): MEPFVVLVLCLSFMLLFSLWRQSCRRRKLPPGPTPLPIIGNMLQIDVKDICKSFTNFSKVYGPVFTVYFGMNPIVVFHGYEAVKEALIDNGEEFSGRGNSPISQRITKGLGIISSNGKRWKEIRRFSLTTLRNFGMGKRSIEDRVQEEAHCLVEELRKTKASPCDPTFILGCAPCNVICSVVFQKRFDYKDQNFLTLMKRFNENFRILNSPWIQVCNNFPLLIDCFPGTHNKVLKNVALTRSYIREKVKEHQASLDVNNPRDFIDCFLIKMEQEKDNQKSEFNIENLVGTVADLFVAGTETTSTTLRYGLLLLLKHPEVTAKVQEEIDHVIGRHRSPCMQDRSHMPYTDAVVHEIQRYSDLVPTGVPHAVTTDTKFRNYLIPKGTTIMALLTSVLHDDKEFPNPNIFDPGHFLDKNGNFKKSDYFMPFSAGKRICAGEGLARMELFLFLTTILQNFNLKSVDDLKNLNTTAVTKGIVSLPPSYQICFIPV
As to the kind of experiment: Drug metabolism in supersomes expressing human recombinant CYP2C8 assessed as enzyme-mediated clozapine-N-oxide metabolite formation at 100 uM after 30 mins measured per nmol of P450 by HPLC analysis.

For data set [3], the target named is T2, Cytochrome P450 2C8. Put plainly: Drug metabolism in supersomes expressing human recombinant CYP2C8 assessed as enzyme-mediated clozapine-N-oxide metabolite formation at 10 uM after 30 mins measured per nmol of P450 by HPLC analysis.
Data set [4] concerns the target T1, Cytochrome P450 1B1. As to the kind of experiment: Drug metabolism in supersomes expressing human recombinant CYP1B1 assessed as enzyme-mediated cyanide adduct formation at 100 uM after 30 mins measured per nmol of P450 by HPLC analysis in presence of KCN.
Data set [5] concerns the target T3, Cytochrome P450 2C18 (Homo sapiens, UniProt P33260).
T3 sequence (P33260 whole entry): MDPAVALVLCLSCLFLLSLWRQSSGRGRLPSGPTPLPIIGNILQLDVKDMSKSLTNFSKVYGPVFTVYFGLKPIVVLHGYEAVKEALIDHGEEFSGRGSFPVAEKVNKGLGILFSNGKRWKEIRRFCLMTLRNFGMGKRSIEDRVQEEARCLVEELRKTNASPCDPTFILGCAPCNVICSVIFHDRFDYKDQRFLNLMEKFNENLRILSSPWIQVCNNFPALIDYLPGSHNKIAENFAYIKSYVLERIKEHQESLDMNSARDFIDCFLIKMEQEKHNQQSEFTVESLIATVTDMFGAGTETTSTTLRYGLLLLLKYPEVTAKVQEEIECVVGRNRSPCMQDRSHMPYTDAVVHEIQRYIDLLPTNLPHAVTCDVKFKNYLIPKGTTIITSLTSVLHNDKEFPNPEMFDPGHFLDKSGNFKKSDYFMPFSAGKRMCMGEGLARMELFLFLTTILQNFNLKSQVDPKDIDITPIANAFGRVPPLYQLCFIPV
Put plainly: Drug metabolism in supersomes expressing human recombinant CYP2C18 assessed as enzyme-mediated cyanide adduct formation at 100 uM after 30 mins measured per nmol of P450 by HPLC analysis in presence of KCN.

Data set [6] addresses T4, Cytochrome P450 1A1 (Homo sapiens, UniProt P04798).
T4 sequence (P04798 whole entry): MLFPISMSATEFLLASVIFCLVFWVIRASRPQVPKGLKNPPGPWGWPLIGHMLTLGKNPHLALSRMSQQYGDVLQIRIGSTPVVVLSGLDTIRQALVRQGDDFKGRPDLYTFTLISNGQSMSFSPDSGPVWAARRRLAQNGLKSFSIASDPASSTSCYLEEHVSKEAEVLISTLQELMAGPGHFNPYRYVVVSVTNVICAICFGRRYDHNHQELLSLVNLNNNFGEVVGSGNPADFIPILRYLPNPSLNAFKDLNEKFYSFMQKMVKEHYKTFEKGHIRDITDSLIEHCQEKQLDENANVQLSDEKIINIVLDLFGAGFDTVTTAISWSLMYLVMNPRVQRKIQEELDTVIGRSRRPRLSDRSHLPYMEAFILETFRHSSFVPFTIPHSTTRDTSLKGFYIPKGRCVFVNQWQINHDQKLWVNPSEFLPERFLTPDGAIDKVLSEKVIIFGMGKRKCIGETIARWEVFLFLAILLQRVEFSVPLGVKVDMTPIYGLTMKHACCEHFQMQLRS
Put plainly: Drug metabolism in supersomes expressing human recombinant CYP1A1 assessed as enzyme-mediated clozapine-N-oxide metabolite formation at 10 uM after 30 mins measured per nmol of P450 by HPLC analysis.

The target in data set [7] is T1, Cytochrome P450 1B1. As to the kind of experiment: Drug metabolism in supersomes expressing human recombinant CYP1B1 assessed as enzyme-mediated clozapine-N-oxide metabolite formation at 100 uM after 30 mins measured per nmol of P450 by HPLC analysis.
For data set [8], the target named is T2, Cytochrome P450 2C8. As to the kind of experiment: Drug metabolism in supersomes expressing human recombinant CYP2C8 assessed as enzyme-mediated N-desmethylclozapine metabolite formation at 10 uM after 30 mins measured per nmol of P450 by HPLC analysis.
For data set [9], the target named is T4, Cytochrome P450 1A1. As to the kind of experiment: Drug metabolism in supersomes expressing human recombinant CYP1A1 assessed as enzyme-mediated total GSH conjugate formation at 10 uM after 30 mins measured per nmol of P450 by HPLC analysis in presence of GSH and hGST P1-1.
The target in data set [10] is T4, Cytochrome P450 1A1. Put plainly: Drug metabolism in supersomes expressing human recombinant CYP1A1 assessed as enzyme-mediated N-desmethylclozapine metabolite formation at 100 uM after 30 mins measured per nmol of P450 by HPLC analysis.

Consider `CN1CCN(C2=Nc3cc(Cl)ccc3Nc3ccccc32)CC1` [CLOZAPINE], for which the Drug metabolism in data set [1] amounted to 0.94 nmol/min; in data set [2], 0.075 nmol/min/nmol P450; in [3] it was 0.1 nmol/min; in data set [4], 0.01 nmol/min; in [5] it was 0.41 nmol/min; in data set [6], 0.24 nmol/min. The Drug metabolism was found to be 0.64 nmol/min/nmol P450 in data set [7], 0.92 nmol/min in [8], 0.3 nmol/min in data set [9] and 0.56 nmol/min in [10].
